Results taken from the supplement of paper PMC7017272.
± gives the standard deviation of the averaged measurements.

Assays:
Conditions in all cases: treatment time: 3 days
[1] = tested on: UT-SCC-40; assay: drug sensitivity score (DSS); higher = more sensitive; extreme values may be limits of the assay
Method in brief: (§1)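 The FIMM pipeline was used to fit percent-inhibition dose–response curves, giving IC50, maximal inhibition and drug sensitivity score. Input data were CellTiter-Glo 2.0 luminescence readings, normalised to vehicle (0.1% DMSO) and cell-killing control wells, from HPV-negative HNSCC cell lines seeded at 500 cells/well in 384-well plates. Cells sat on plastic, on Matrigel or Myogel coatings (500 µg/mL), or within Matrigel or Myogel plus rat collagen I, and received compounds at five 10-fold concentrations for 3 days.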

[2] = tested on: UT-SCC-44; assay: as above
Method in brief: as §1

[3] = tested on: UT-SCC-73; assay: as above
Method in brief: as §1

[4] = tested on: UT-SCC-81; assay: as above
Method in brief: as §1

[5] = tested on: UT-SCC-42B; assay: as above
Method in brief: as §1

[6] = tested on: UT-SCC-42A; assay: as above
Method in brief: as §1

[7] = tested on: UT-SCC-8; assay: as above
Method in brief: as §1

[8] = tested on: UT-SCC-28; assay: as above
Method in brief: as §1

[9] = tested on: UT-SCC-106A; assay: as above
Method in brief: as §1

[10] = tested on: UT-SCC-40; assay: maximal % inhibition of viability relative to DMSO; higher = stronger effect
Method: (§2)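 HNSCC cell lines (500 cells/well, 384-well) were cultured on plastic, on top of (2D) or embedded (3D) in Matrigel or human leiomyoma matrix Myogel (500 ug/mL; Myogel 3D mixed with rat collagen I). Cells were treated for 3 days with 5 ten-fold concentrations of each drug, and viability was read by CellTiter-Glo. Viability was normalised to DMSO and benzethonium chloride controls and fitted with the FIMM DSRT pipeline to give IC50 (nM), maximal % inhibition and DSS. Suffixes _1/_2/_3 are replicates. Only inhibition-mode (IC50) fits are kept.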

[11] = tested on: UT-SCC-44; assay: as above
Method: as §2

[12] = tested on: UT-SCC-73; assay: as above
Method: as §2

[13] = tested on: UT-SCC-81; assay: as above
Method: as §2

[14] = tested on: UT-SCC-42B; assay: as above
Method: as §2

[15] = tested on: UT-SCC-42A; assay: as above
Method: as §2

[16] = tested on: UT-SCC-8; assay: as above
Method: as §2

[17] = tested on: UT-SCC-28; assay: as above
Method: as §2

[18] = tested on: UT-SCC-14; assay: as above
Method: as §2

[19] = tested on: UT-SCC-106A; assay: as above
Method: as §2

[20] = tested on: UT-SCC-24B; assay: as above
Method: as §2

[21] = culture condition: embedded in Matrigel
[22] = culture condition: embedded in Myogel + collagen I
[23] = culture condition: on top of Matrigel
[24] = culture condition: on top of Myogel
[25] = culture condition: plastic 2D (no matrix)

**Q.** Which drug sensitivity score [1, 21] does the source give for `CO[C@H]1C[C@@H]2CC[C@@H](C)[C@@](O)(O2)C(=O)C(=O)N2CCCC[C@H]2C(=O)O[C@H]([C@H](C)C[C@@H]2CC[C@@H](O)[C@H](OC)C2)CC(=O)[C@H](C)/C=C(\C)[C@@H](O)[C@@H](OC)C(=O)[C@H](C)C[C@H](C)/C=C/C=C/C=C/1C` [Sirolimus] here?
**A.** 5.4 ± 4.9 DSS

**Q.** And the drug sensitivity score [1, 22]?
**A.** 4.83 ± 4.2 DSS

**Q.** And the drug sensitivity score [1, 23]?
**A.** 3.2 ± 5.5 DSS

**Q.** And the drug sensitivity score [1, 24]?
**A.** 4.67 ± 4.1 DSS

**Q.** And the drug sensitivity score [1, 25]?
**A.** 0 DSS

**Q.** And the drug sensitivity score [2, 21]?
**A.** 6.6 ± 5.8 DSS

**Q.** What about the drug sensitivity score [2, 22] of the same molecule?
**A.** 13.9 ± 2.7 DSS

**Q.** What about the drug sensitivity score [2, 23] of the same molecule?
**A.** 13.1 ± 0.99 DSS

**Q.** What about the drug sensitivity score [2, 24] of the same molecule?
**A.** 14.2 ± 3.2 DSS

**Q.** And the drug sensitivity score [2, 25]?
**A.** 15 ± 1.4 DSS

**Q.** What about the drug sensitivity score [3, 21] of the same molecule?
**A.** 12.4 ± 4.3 DSS

**Q.** What about the drug sensitivity score [3, 22] of the same molecule?
**A.** 8.07 ± 1.6 DSS

**Q.** What about the drug sensitivity score [3, 23] of the same molecule?
**A.** 11.9 ± 5.2 DSS

**Q.** What about the drug sensitivity score [3, 24] of the same molecule?
**A.** 10.1 ± 0.81 DSS

**Q.** And the drug sensitivity score [3, 25]?
**A.** 7.43 ± 0.31 DSS

**Q.** And the drug sensitivity score [4, 21]?
**A.** 14.2 ± 4.6 DSS

**Q.** And the drug sensitivity score [4, 22]?
**A.** 14.9 ± 2.7 DSS

**Q.** What about the drug sensitivity score [4, 23] of the same molecule?
**A.** 17.1 ± 1.8 DSS

**Q.** And the drug sensitivity score [4, 24]?
**A.** 16.6 ± 2.1 DSS

**Q.** And the drug sensitivity score [4, 25]?
**A.** 17.8 ± 1.2 DSS

**Q.** And the drug sensitivity score [5, 21]?
**A.** 3.47 ± 6 DSS

**Q.** What about the drug sensitivity score [5, 23] of the same molecule?
**A.** 3.07 ± 5.3 DSS

**Q.** What about the drug sensitivity score [5, 24] of the same molecule?
**A.** 0 DSS

**Q.** And the drug sensitivity score [5, 25]?
**A.** 3.8 ± 3.4 DSS

**Q.** And the drug sensitivity score [6, 21]?
**A.** 10.6 ± 4.6 DSS

**Q.** And the drug sensitivity score [6, 22]?
**A.** 9.5 ± 0.92 DSS

**Q.** And the drug sensitivity score [6, 23]?
**A.** 12.9 ± 1.6 DSS

**Q.** And the drug sensitivity score [6, 24]?
**A.** 12.3 ± 1.6 DSS

**Q.** And the drug sensitivity score [6, 25]?
**A.** 11.2 ± 0.82 DSS

**Q.** And the drug sensitivity score [7, 21]?
**A.** 12.2 ± 11 DSS

**Q.** And the drug sensitivity score [7, 22]?
**A.** 3.87 ± 6.7 DSS

**Q.** What about the drug sensitivity score [7, 23] of the same molecule?
**A.** 11.5 ± 10 DSS

**Q.** And the drug sensitivity score [7, 24]?
**A.** 11.3 ± 9.8 DSS

**Q.** What about the drug sensitivity score [7, 25] of the same molecule?
**A.** 12.4 ± 11 DSS

**Q.** And the drug sensitivity score [8, 21]?
**A.** 7.27 ± 5.1 DSS

**Q.** And the drug sensitivity score [8, 22]?
**A.** 7.53 ± 7 DSS

**Q.** What about the drug sensitivity score [8, 23] of the same molecule?
**A.** 9.87 ± 0.93 DSS

**Q.** What about the drug sensitivity score [8, 25] of the same molecule?
**A.** 6.97 ± 1.6 DSS

**Q.** And the drug sensitivity score [9, 21]?
**A.** 4.7 ± 4.3 DSS

**Q.** And the drug sensitivity score [9, 22]?
**A.** 3.73 ± 3.3 DSS

**Q.** And the drug sensitivity score [9, 23]?
**A.** 8.67 ± 3.8 DSS

**Q.** And the drug sensitivity score [9, 24]?
**A.** 7.03 ± 3.8 DSS

**Q.** And the drug sensitivity score [9, 25]?
**A.** 10 ± 3.3 DSS

**Q.** And the “maximal % inhibition of viability” value [10, 21]?
**A.** 91.7 ± 5%

**Q.** What about the “maximal % inhibition of viability” value [10, 22] of the same molecule?
**A.** 92 ± 2%

**Q.** And the “maximal % inhibition of viability” value [10, 23]?
**A.** 86.8 ± 0.91%

**Q.** What about the “maximal % inhibition of viability” value [10, 24] of the same molecule?
**A.** 75.6 ± 0.97%

**Q.** What about the “maximal % inhibition of viability” value [10, 25] of the same molecule?
**A.** 79.1 ± 2.9%

**Q.** What about the “maximal % inhibition of viability” value [11, 21] of the same molecule?
**A.** 48.7 ± 9.5%

**Q.** What about the “maximal % inhibition of viability” value [11, 22] of the same molecule?
**A.** 72.6 ± 1.9%

**Q.** And the “maximal % inhibition of viability” value [11, 23]?
**A.** 61 ± 2.4%

**Q.** What about the “maximal % inhibition of viability” value [11, 24] of the same molecule?
**A.** 72.5 ± 1.7%

**Q.** What about the “maximal % inhibition of viability” value [11, 25] of the same molecule?
**A.** 72.3 ± 3.1%

**Q.** And the “maximal % inhibition of viability” value [12, 21]?
**A.** 84.6 ± 1.5%

**Q.** And the “maximal % inhibition of viability” value [12, 22]?
**A.** 78.8 ± 4.7%

**Q.** What about the “maximal % inhibition of viability” value [12, 23] of the same molecule?
**A.** 83.3 ± 2.9%

**Q.** And the “maximal % inhibition of viability” value [12, 24]?
**A.** 80.27 ± 0.76%

**Q.** What about the “maximal % inhibition of viability” value [12, 25] of the same molecule?
**A.** 79.8 ± 1.5%

**Q.** And the “maximal % inhibition of viability” value [13, 21]?
**A.** 89.7 ± 3.3%

**Q.** And the “maximal % inhibition of viability” value [13, 22]?
**A.** 80 ± 4.9%

**Q.** What about the “maximal % inhibition of viability” value [13, 23] of the same molecule?
**A.** 82.1 ± 1.4%

**Q.** And the “maximal % inhibition of viability” value [13, 24]?
**A.** 77.3 ± 1.9%

**Q.** And the “maximal % inhibition of viability” value [13, 25]?
**A.** 78.8 ± 3.2%

**Q.** What about the “maximal % inhibition of viability” value [14, 21] of the same molecule?
**A.** 85 ± 3.7%

**Q.** And the “maximal % inhibition of viability” value [14, 23]?
**A.** 76.5 ± 1.4%

**Q.** What about the “maximal % inhibition of viability” value [14, 24] of the same molecule?
**A.** 76.5 ± 1.6%

**Q.** What about the “maximal % inhibition of viability” value [14, 25] of the same molecule?
**A.** 74.1 ± 2.6%

**Q.** And the “maximal % inhibition of viability” value [15, 21]?
**A.** 66.8 ± 8.8%

**Q.** What about the “maximal % inhibition of viability” value [15, 22] of the same molecule?
**A.** 52.5 ± 2.1%

**Q.** What about the “maximal % inhibition of viability” value [15, 23] of the same molecule?
**A.** 64.7 ± 1.1%

**Q.** And the “maximal % inhibition of viability” value [15, 24]?
**A.** 61.33 ± 0.42%

**Q.** What about the “maximal % inhibition of viability” value [15, 25] of the same molecule?
**A.** 55.5 ± 0.36%

**Q.** What about the “maximal % inhibition of viability” value [16, 21] of the same molecule?
**A.** 96.37 ± 0.95%

**Q.** And the “maximal % inhibition of viability” value [16, 22]?
**A.** 94.2 ± 1.6%

**Q.** And the “maximal % inhibition of viability” value [16, 23]?
**A.** 95.77 ± 0.31%

**Q.** What about the “maximal % inhibition of viability” value [16, 24] of the same molecule?
**A.** 94.7 ± 0.35%

**Q.** And the “maximal % inhibition of viability” value [16, 25]?
**A.** 95.07 ± 0.45%

**Q.** What about the “maximal % inhibition of viability” value [17, 21] of the same molecule?
**A.** 35 ± 13%

**Q.** What about the “maximal % inhibition of viability” value [17, 22] of the same molecule?
**A.** 57.3 ± 1.4%

**Q.** What about the “maximal % inhibition of viability” value [17, 23] of the same molecule?
**A.** 43.7 ± 4.2%

**Q.** What about the “maximal % inhibition of viability” value [17, 25] of the same molecule?
**A.** 34.8 ± 4.6%

**Q.** What about the “maximal % inhibition of viability” value [18, 21] of the same molecule?
**A.** 73.1 ± 6.3%

**Q.** What about the “maximal % inhibition of viability” value [18, 22] of the same molecule?
**A.** 60.2 ± 7.8%

**Q.** What about the “maximal % inhibition of viability” value [18, 23] of the same molecule?
**A.** 70.8 ± 8.7%

**Q.** What about the “maximal % inhibition of viability” value [18, 24] of the same molecule?
**A.** 66.2 ± 9%

**Q.** And the “maximal % inhibition of viability” value [18, 25]?
**A.** 64.4 ± 6.4%

**Q.** And the “maximal % inhibition of viability” value [19, 21]?
**A.** 53.1 ± 13%

**Q.** What about the “maximal % inhibition of viability” value [19, 22] of the same molecule?
**A.** 35.2 ± 3%

**Q.** What about the “maximal % inhibition of viability” value [19, 23] of the same molecule?
**A.** 52.9 ± 3.1%

**Q.** What about the “maximal % inhibition of viability” value [19, 24] of the same molecule?
**A.** 41.1 ± 1.3%

**Q.** And the “maximal % inhibition of viability” value [19, 25]?
**A.** 57.3 ± 2.8%

**Q.** What about the “maximal % inhibition of viability” value [20, 21] of the same molecule?
**A.** 93.17 ± 0.71%

**Q.** What about the “maximal % inhibition of viability” value [20, 22] of the same molecule?
**A.** 93.9 ± 1.8%

**Q.** What about the “maximal % inhibition of viability” value [20, 23] of the same molecule?
**A.** 91.5 ± 0.2%

**Q.** And the “maximal % inhibition of viability” value [20, 24]?
**A.** 91.1 ± 2.1%

**Q.** And the “maximal % inhibition of viability” value [20, 25]?
**A.** 90.4 ± 1.4%
